Like-named read-outs stand apart in the source and are kept apart here.
Experiments:
[1] = target: recombinant biotinylated KRAS protein containing G12C/C51S/C80L/C118S mutations (Biotinylated KRAS G12C protein) (Homo sapiens (Human), UniProt P01116, C118S/C51S/C80L/G12C); test: SOS-catalyzed nucleotide exchange assay (TR-FRET); format: biochemical; conditions: apparent potency; preincubation time of 60 minutes prior to addition of SOS
Protocol: The SOS-catalyzed nucleotide exchange assay utilizes a preformed complex of recombinant biotinylated KRAS protein containing G12C/C51S/C80L/C118S mutations (183 amino acids; biotin on K10; leader sequence which is an AviTag; referred to as SEQ ID NO: 1 or “Biotinylated KRAS G12C protein” hereafter), Bodipy-GDP, and Terbium-streptavidin. Compounds are added to this complex and then after 60 minutes incubation time, the mixture is treated with recombinant SOS protein and unlabeled GTP. Small molecule inhibitors stabilize the Bodipy-GDP complex whereas the untreated protein rapidly exchanges Bodipy-GDP for unlabeled GTP resulting in reduced TR-FRET signal.
Biotinylated KRAS G12C protein (SEQ ID NO: 1) is diluted to 2 μM in an EDTA buffer (20 mM HEPES, 150 mM sodium chloride, 10 mM EDTA, and 0.01% Tween) and incubated at room temperature for one hour. This mixture is then further diluted to 90 nM in an assay buffer (20 mM HEPES, 150 mM sodium chloride, 10 mM magnesium chloride, and 0.005% Tween) containing 15 nM of Terbium-Streptavidin (Invitrogen, catalog #PV3577) and 900 nM of Bodipy-GDP and incubated at room temperature for six hours. This solution is referred to as Biotinylated KRAS G12C mixture.
Each test compound (10 mM stock in DMSO) is diluted in DMSO to make a 10-point, 3-fold dilution series in a 384-well low dead volume microplate (Labcyte, catalog #LP-0200). Once titrations are made, 10 nL of the diluted compounds is acoustically dispensed into a 384-well plate (Corning, catalog #3820) using an Echo 550 (Labcyte).
Each well of the plate receives 3 μL Biotinylated KRAS G12C mixture that had been incubating for six hours and 3 μL of assay buffer using a BioRAPTR (Beckman Coulter) and is incubated at room temperature for 60 minutes. Each well then receives 3 μL of 240 nM recombinant human SOS protein and 9 mM GTP (Sigma, G8877) in assay buffer and is incubated at room temperature for 60 minutes.
The time-resolved fluorescence resonance energy transfer signal of the plate is measured on an Envision (PerkinElmer) plate reader: Excitation filter=340 nm; emission1=495 nm; emission2=520 nm; dichroic mirror=D400/D505; delay time=100 μs. The signal of each well is determined as the ratio of the emission at 520 nm to that at 495 nm. Percent effect of each well is determined after normalization to control wells containing DMSO (no effect) or a saturating concentration of inhibitor (max effect). The apparent effect as a function of compound concentration is fit to a four parameter logistic equation.

NCI-H358 cells = test: Cellular phospho-ERK assay; format: cell-based; conditions: 2 hour incubation, ratio of p-Erk vs total Erk, read-out: IC50 (nM) pERK (Cell)
Protocol: NCI-H358 cells (ATCC® CRL-5807™) were cultured in T150 flask in growth medium (RPMI medium 1640-(ThermoFisher Scientific 61870) containing 10% fetal bovine serum (ThermoFisher Scientific 10091148)). The cells were harvested in growth medium after TrypLE (ThermoFisher scientific 12604021) digestion and were seeded in 384-well collagen coated cell culture plate (Corning 356702) at a density of 15,000 cells/well, and incubated at 37° C., 5% CO2 overnight. The compound dose-response titrations were prepared and appropriate amounts of compounds were dispensed in a 384-well intermediate plate using an Echo 550 liquid handler. RPMI medium 1640-GlutaMAX™-I were added to the intermediate plate and transferred to 384-well cell culture plate, which was incubated at 37° C., 5% CO2 for 2 hours. After removal of medium from the plate, cells were lysed in lysis buffer from SureFire® Ultra™ Multiplex p-Erk and total Erk assay kit (PerkinElmer MPSU-PTERK) containing Halt™ Protease and Phosphotase inhibitor cocktail (ThermoFisher Scientific 78446) at room temperature with constant shaking at 300 rpm for 30 minutes. The cell lysates were then transferred to OptiPlate-384 plate (PerkinElmer 6005620) and the phosphorylation of Erk and total Erk levels were detected by Alpha SureFire Ultra Multiplex p-Erk kit PerkinElmer MPSU-PTERK) following the manufacturer's protocol. Assay plates were read on an EnVision Multimode Plate Reader (PerkinElmer), and the ratio of p-Erk vs total Erk in each well was used as the final readout. Dose response curves were analyzed using a 4-parameter logistic model to calculate IC50 values using spotfire software.

Sequence of recombinant biotinylated KRAS protein containing G12C/C51S/C80L/C118S mutations (Biotinylated KRAS G12C protein) (P01116 other isoform, or with tags, fused parts or gaps, stated change not applied): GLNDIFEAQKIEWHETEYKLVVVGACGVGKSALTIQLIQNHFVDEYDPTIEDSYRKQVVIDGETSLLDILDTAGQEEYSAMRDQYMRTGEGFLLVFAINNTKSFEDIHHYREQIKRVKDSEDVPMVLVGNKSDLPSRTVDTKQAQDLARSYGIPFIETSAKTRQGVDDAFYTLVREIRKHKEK

Compound | IC50 [1] | IC50 (NCI-H358 cells; Homo sapiens, NCI-H358, 2 h) | IC50 (NCI-H358 cells)
C=CC(=O)N1CCN(c2nc(C(N)=O)nc3c2CCC2(CCCc4ccccc42)O3)C[C@@H]1CC#N (single isomer, unassigned) [Example 18b] | 268 nM | 1520 nM | 
C=CC(=O)N1CCN(c2nc(C(=O)N[C@H](C)CN(C)C)nc3c2CCC2(CCCc4cccc(C)c42)O3)CC1 (single isomer, unassigned) [Example 19a] | 8470 nM | 30000 nM | 
C=CC(=O)N1CCN(c2nc(N3CC(N(C)C)C3)nc3c2CCC2(CCCc4ccccc42)O3)C[C@@H]1CC#N (single isomer, unassigned) [Example 20a] | 41.8 nM | 1470 nM | 
C=CC(=O)N1CCN(c2nc(N3CC(N(C)C)C3)nc3c2CCC2(CCCc4ccccc42)O3)C[C@@H]1CC#N (single isomer, unassigned) [Example 20b] | 80.4 nM |  | 2760 nM
C=CC(=O)N1CCN(c2nc(OC[C@@H]3CCCN3C)nc3c2CCC2(CCCc4ccccc42)O3)CC1 (single isomer, unassigned) [Example 21a] | 5340 nM | 10200 nM | 
C=CC(=O)N1CCN(c2nc(OC[C@@H]3CCCN3C)nc3c2CCC2(CCc4ccccc42)O3)CC1 (single isomer, unassigned) [Example 22a] | 6320 nM | 24600 nM | 
C=CC(=O)N1CCN(c2nc(OC[C@@H]3CCCN3C)nc3c2CCC2(CCCc4cccc(Cl)c42)O3)CC1 (single isomer, unassigned) [Example 23a] | 5070 nM | 26500 nM | 
C=CC(=O)N1CCN(c2nc(OC[C@@H]3CCCN3C)nc3c2CCC2(CCCc4cccc(C)c42)O3)CC1 (single isomer, unassigned) [Example 24a] | 2390 nM | 12900 nM | 
C=CC(=O)N1CCN(c2nc(OC[C@@H]3CCCN3C)nc3c2CCC2(CC(C)c4ccccc42)O3)C[C@@H]1CC#N (single isomer, unassigned) [Example 25a] | 14.2 nM |  | 1100 nM
C=CC(=O)N1CCN(c2nc(OC[C@@H]3CCCN3C)nc3c2CCC2(CC(C)c4ccccc42)O3)C[C@@H]1CC#N (single isomer, unassigned) [Example 25b] | 11.6 nM |  | 2740 nM
C=CC(=O)N1CCN(c2nc(OC[C@@H]3CCCN3C)nc3c2CCC2(CC(C)c4ccccc42)O3)C[C@@H]1CC#N (single isomer, unassigned) [Example 25c] | 253 nM |  | 11000 nM
C=CC(=O)N1CCN(c2nc(OC[C@@H]3CCCN3C)nc3c2CCC2(CC(C)c4ccccc42)O3)C[C@@H]1CC#N (single isomer, unassigned) [Example 25d] | 113 nM |  | 8130 nM
C=CC(=O)N1CCN(c2nc(OC[C@@H]3CCCN3C)nc3c2CCC2(O3)c3ccccc3CC2(C)C)C[C@@H]1CC#N (single isomer, unassigned) [Example 27a] | 1080 nM | 30000 nM | 
C=CC(=O)N1CCN(c2nc(OC[C@@H]3CCCN3C)nc3c2CCC2(O3)c3ccccc3CC2(C)C)C[C@@H]1CC#N (single isomer, unassigned) [Example 27b] | 4490 nM |  | 28600 nM
C=CC(=O)N1CCN(c2nc(OC[C@@H]3CCCN3C)nc3c2CCC2(CCc4c2ccc2[nH]ncc42)O3)C[C@@H]1CC#N (single isomer, unassigned) [Example 28a] | 7840 nM | > 30000 nM | 
C=CC(=O)N1CCN(c2nc(OC[C@@H]3CCCN3C)nc3c2CCC2(CCc4c2ccc2[nH]ncc42)O3)C[C@@H]1CC#N (single isomer, unassigned) [Example 28b] | 2330 nM |  | 29400 nM
C=CC(=O)N1CCN(c2nc(OC[C@@H]3CCCN3C)nc3c2CCC2(CCCc4ccccc42)O3)[C@@H](C)C1 (stereo partly drawn) [Example 13a, 1-((3S)-3-methyl-4-(2′-(((S)-1-methylpyrrolidin-2-yl)methoxy)-3,4,5′,6′-tetrahydro-2H-spiro[naphthalene-1,7′-pyrano[2,3-d]pyrimidin]-4′-yl)piperazin-1-yl)prop-2-en-1-one] | 576 nM | 4980 nM | 
C=CC(=O)N1CCN(c2nc(OC[C@@H]3CCCN3C)nc3c2CCC2(CCCc4ccccc42)O3)C[C@H]1C (stereo partly drawn) [Example 14a, 1-((2R)-2-methyl-4-(2′-(((S)-1-methylpyrrolidin-2-yl)methoxy)-3,4,5′,6′-tetrahydro-2H-spiro[naphthalene-1,7′-pyrano[2,3-d]pyrimidin]-4′-yl)piperazin-1-yl)prop-2-en-1-one] | 2080 nM | 4200 nM | 
C=CC(=O)N1CCN(c2nc(OC[C@@H]3CCCN3C)nc3c2CCC2(Cc4ccccc4C2)O3)C[C@@H]1CC#N [Example 29, 2-((S)-1-acryloyl-4-(2′-(((S)-1-methylpyrrolidin-2-yl)methoxy)-1,3,5′,6′-tetrahydrospiro[indene-2,7′-pyrano[2,3-d]pyrimidin]-4′-yl)piperazin-2-yl)acetonitrile] | 5010 nM | 19200 nM | 
C=CC(=O)N1CCN(c2nc(OC[C@@H]3CCCN3C)nc3c2CCC2(O3)c3ccccc3-c3ccccc32)C[C@@H]1CC#N [Example 30, 2-((S)-1-acryloyl-4-(2′-(((S)-1-methylpyrrolidin-2-yl)methoxy)-5′,6′-dihydrospiro[fluorene-9,7′-pyrano[2,3-d]pyrimidin]-4′-yl)piperazin-2-yl)acetonitrile] | 68.6 nM | 1290 nM | 

From US20240124478A1, “SPIROCYCLIC-SUBSTITUTED 6,7-DIHYDRO-PYRANO[2,3-d]PYRIMIDINE INHIBITORS OF KRAS G12C MUTANT” (Merck Sharp & Dohme LLC, priority 2020, published 2024)
